Activity calls are given as the source filed them. The calls are words filed in the database; no cut-off is given here.
Key:
[1] = system: PC-3; experiment: Growth inhibition of human PC3 cells after 48 hrs by SRB assay; format: functional; conditions: PC-3, 48 h
[2] = system: DU-145; experiment: Growth inhibition of human DU145 cells after 48 hrs by SRB assay; format: functional; conditions: DU-145, 48 h
[3] = system: MCF7; experiment: Growth inhibition of human MCF7 cells after 48 hrs by SRB assay; format: functional; conditions: MCF7, 48 h
[4] = system: MDA-MB-231; experiment: Growth inhibition of human MDA-MB-231 cells after 48 hrs by SRB assay; format: functional; conditions: MDA-MB-231, 48 h
[5] = Growth inhibition of human Hs578T cells after 48 hrs by SRB assay; format: functional; conditions: Hs-578T
[6] = Growth inhibition of human BT549 cells after 48 hrs by SRB assay; format: functional; conditions: BT-549, 48 h
[7] = system: T47D; experiment: Growth inhibition of human T47D cells after 48 hrs by SRB assay; format: functional
[8] = system: MDA-MB-468; experiment: Growth inhibition of human MDA-MB-468 cells after 48 hrs by SRB assay; format: functional; conditions: MDA-MB-468, 48 h
[9] = Growth inhibition of human LOXIMVI cells after 48 hrs by SRB assay; format: functional; conditions: LOX IMVI
[10] = system: Malme-3M; experiment: Growth inhibition of human MALME-3M cells after 48 hrs by SRB assay; format: functional
[11] = system: M14; experiment: Growth inhibition of human M14 cells after 48 hrs by SRB assay; format: functional; conditions: M14, 48 h
[12] = system: MDA-MB-435; experiment: Growth inhibition of human MDA-MB-435 cells after 48 hrs by SRB assay; format: functional; conditions: MDA-MB-435, 48 h
[13] = system: SK-MEL-2; experiment: Growth inhibition of human SK-MEL-2 cells after 48 hrs by SRB assay; format: functional; conditions: SK-MEL-2, 48 h
[14] = system: SK-MEL-28; experiment: Growth inhibition of human SK-MEL-28 cells after 48 hrs by SRB assay; format: functional; conditions: SK-MEL-28, 48 h
[15] = system: SK-MEL-5; experiment: Growth inhibition of human SK-MEL-5 cells after 48 hrs by SRB assay; format: functional; conditions: SK-MEL-5, 48 h
[16] = Growth inhibition of human UACC62 cells after 48 hrs by SRB assay; format: functional; conditions: UACC-62, 48 h
[17] = Growth inhibition of human UACC257 cells after 48 hrs by SRB assay; format: functional; conditions: UACC-257, 48 h
[18] = system: MCF7; experiment: Growth inhibition of human MCF7 cells assessed as cell viability at 4 uM after 24 hrs by MTT assay; format: functional, cell-based
[19] = system: MCF7; experiment: Cell cycle arrest in human MCF7 cells assessed as accumulation at G0/G1 phase at 4 uM after 24 hrs by propidium iodide staining-based flow cytometry (reference value: 64.04%); format: functional
[20] = system: MCF7; experiment: Cell cycle arrest in human MCF7 cells assessed as accumulation at S phase at 4 uM after 24 hrs by propidium iodide staining-based flow cytometry (reference value: 20.17%); format: functional
[21] = system: MCF7; experiment: Cell cycle arrest in human MCF7 cells assessed as accumulation at G2/M phase at 4 uM after 24 hrs by propidium iodide staining-based flow cytometry (reference value: 15.79%); format: functional
[22] = system: CCRF-CEM; experiment: Growth inhibition of human CCRF-CEM cells after 48 hrs by SRB assay; format: functional
[23] = system: HL-60(TB); experiment: Growth inhibition of human HL-60(TB) cells after 48 hrs by SRB assay; format: functional; conditions: HL-60, 48 h
[24] = system: K562; experiment: Growth inhibition of human K562 cells after 48 hrs by SRB assay; format: functional; conditions: K562, 48 h
[25] = Growth inhibition of human MOLT4 cells after 48 hrs by SRB assay; format: functional; conditions: MOLT-4, 48 h
[26] = system: SR; experiment: Growth inhibition of human SR cells after 48 hrs by SRB assay; format: functional
[27] = system: RPMI-8226; experiment: Growth inhibition of human RPMI8226 cells after 48 hrs by SRB assay; format: functional; conditions: RPMI-8226, 48 h
[28] = system: A549; experiment: Growth inhibition of human A549 cells after 48 hrs by SRB assay; format: functional; conditions: A549, 48 h
[29] = Growth inhibition of human EKVX cells after 48 hrs by SRB assay; format: functional
[30] = system: HOP-62; experiment: Growth inhibition of human HOP62 cells after 48 hrs by SRB assay; format: functional; conditions: HOP-62, 48 h
[31] = Growth inhibition of human HOP92 cells after 48 hrs by SRB assay; format: functional; conditions: HOP-92, 48 h
[32] = system: NCI-H226; experiment: Growth inhibition of human NCI-H226 cells after 48 hrs by SRB assay; format: functional; conditions: NCI-H226, 48 h
[33] = system: NCI-H23; experiment: Growth inhibition of human NCI-H23 cells after 48 hrs by SRB assay; format: functional; conditions: NCI-H23, 48 h
[34] = system: NCI-H322M; experiment: Growth inhibition of human NCI-H322M cells after 48 hrs by SRB assay; format: functional
[35] = system: NCI-H460; experiment: Growth inhibition of human NCI-H460 cells after 48 hrs by SRB assay; format: functional; conditions: NCI-H460, 48 h
[36] = system: NCI-H522; experiment: Growth inhibition of human NCI-H522 cells after 48 hrs by SRB assay; format: functional; conditions: NCI-H522, 48 h
[37] = system: COLO 205; experiment: Growth inhibition of human COLO205 cells after 48 hrs by SRB assay; format: functional; conditions: COLO 205, 48 h
[38] = Growth inhibition of human HCC2998 cells after 48 hrs by SRB assay; format: functional; conditions: HCC 2998, 48 h
[39] = system: HCT-116; experiment: Growth inhibition of human HCT116 cells after 48 hrs by SRB assay; format: functional; conditions: HCT-116, 48 h
[40] = Growth inhibition of human HCT15 cells after 48 hrs by SRB assay; format: functional; conditions: HCT-15, 48 h
[41] = system: HT-29; experiment: Growth inhibition of human HT-29 cells after 48 hrs by SRB assay; format: functional; conditions: HT-29, 48 h
[42] = system: KM12; experiment: Growth inhibition of human KM12 cells after 48 hrs by SRB assay; format: functional; conditions: KM12, 48 h
[43] = system: SW-620; experiment: Growth inhibition of human SW620 cells after 48 hrs by SRB assay; format: functional; conditions: SW-620, 48 h
[44] = system: SF-268; experiment: Growth inhibition of human SF268 cells after 48 hrs by SRB assay; format: functional; conditions: SF-268, 48 h
[45] = Growth inhibition of human SF295 cells after 48 hrs by SRB assay; format: functional; conditions: SF-295, 48 h
[46] = Growth inhibition of human SF539 cells after 48 hrs by SRB assay; format: functional; conditions: SF-539, 48 h
[47] = system: SNB-19; experiment: Growth inhibition of human SNB19 cells after 48 hrs by SRB assay; format: functional; conditions: SNB-19, 48 h
[48] = system: SNB-75; experiment: Growth inhibition of human SNB75 cells after 48 hrs by SRB assay; format: functional; conditions: SNB-75, 48 h
[49] = system: U-251; experiment: Growth inhibition of human U251 cells after 48 hrs by SRB assay; format: functional; conditions: U-251, 48 h
[50] = system: IGROV-1; experiment: Growth inhibition of human IGROV1 cells after 48 hrs by SRB assay; format: functional; conditions: IGROV-1, 48 h
[51] = Growth inhibition of human OVCAR3 cells after 48 hrs by SRB assay; format: functional; conditions: OVCAR-3, 48 h
[52] = Growth inhibition of human OVCAR4 cells after 48 hrs by SRB assay; format: functional; conditions: OVCAR-4, 48 h
[53] = Growth inhibition of human OVCAR5 cells after 48 hrs by SRB assay; format: functional; conditions: OVCAR-5, 48 h
[54] = Growth inhibition of human OVCAR8 cells after 48 hrs by SRB assay; format: functional; conditions: OVCAR-8, 48 h
[55] = Growth inhibition of human NCI-ADR-RES cells after 48 hrs by SRB assay; format: functional
[56] = system: SK-OV-3; experiment: Growth inhibition of human SKOV3 cells after 48 hrs by SRB assay; format: functional; conditions: SK-OV-3, 48 h
[57] = system: 786-0; experiment: Growth inhibition of human 786-0 cells after 48 hrs by SRB assay; format: functional; conditions: 786-0, 48 h
[58] = system: A498; experiment: Growth inhibition of human A498 cells after 48 hrs by SRB assay; format: functional; conditions: A498, 48 h
[59] = system: ACHN; experiment: Growth inhibition of human ACHN cells after 48 hrs by SRB assay; format: functional
[60] = system: CAKI-1; experiment: Growth inhibition of human Caki1 cells after 48 hrs by SRB assay; format: functional; conditions: CAKI-1, 48 h
[61] = Growth inhibition of human RXF393 cells after 48 hrs by SRB assay; format: functional; conditions: RXF 393, 48 h
[62] = system: SN12C; experiment: Growth inhibition of human SN12C cells after 48 hrs by SRB assay; format: functional
[63] = system: TK-10; experiment: Growth inhibition of human TK10 cells after 48 hrs by SRB assay; format: functional; conditions: TK-10, 48 h
[64] = Growth inhibition of human UO31 cells after 48 hrs by SRB assay; format: functional; conditions: UO-31, 48 h

`COc1ccc(-c2nc3ncccn3c2/C=C/C(=O)c2cc(OC)c(OC)c(OC)c2)cc1` gave a GI50 [1] of 4320 nM, a GI50 [2] of 2550 nM and a GI50 [3] of 1140 nM. For the same compound, the GI50 [4] was 2730 nM, the GI50 [5] was 1910 nM and the GI50 [6] was 1450 nM. The GI50 [7] was 2530 nM, the GI50 [8] was 1810 nM and the GI50 [9] was 1460 nM. The GI50 [10] was 1810 nM, the GI50 [11] was 1530 nM and the GI50 [12] was 2280 nM. For the same compound, the GI50 [13] was 1870 nM, the GI50 [14] was 1650 nM and the GI50 [15] was 1520 nM. For the same compound, the GI50 [16] was 1880 nM, the GI50 [17] was 1820 nM and the inhibition [18] was “Active”. For the same compound, the Activity [19] was 90.04%, the Activity [20] was 8.43% and the Activity [21] was 1.53%. It also gave a GI50 [22] of 4010 nM, a GI50 [23] of 2520 nM and a GI50 [24] of 2630 nM. It also gave a GI50 [25] of 3100 nM, a GI50 [26] of 1530 nM and a GI50 [27] of 2210 nM. The GI50 [28] was 2710 nM, the GI50 [29] was 1610 nM and the GI50 [30] was 2830 nM. For the same compound, the GI50 [31] was 1430 nM, the GI50 [32] was 2280 nM and the GI50 [33] was 1350 nM. For the same compound, the GI50 [34] was 1760 nM, the GI50 [35] was 1430 nM and the GI50 [36] was 1660 nM. It also gave a GI50 [37] of 1700 nM, a GI50 [38] of 1580 nM and a GI50 [39] of 1170 nM. The GI50 [40] was 1380 nM, the GI50 [41] was 2190 nM and the GI50 [42] was 1610 nM. It also gave a GI50 [43] of 1750 nM, a GI50 [44] of 2360 nM and a GI50 [45] of 2390 nM. The GI50 [46] was 1360 nM, the GI50 [47] was 3010 nM and the GI50 [48] was 1890 nM. For the same compound, the GI50 [49] was 1290 nM, the GI50 [50] was 2200 nM and the GI50 [51] was 1750 nM. The GI50 [52] was 2910 nM, the GI50 [53] was 1530 nM and the GI50 [54] was 2720 nM. The GI50 [55] was 1560 nM, the GI50 [56] was 2500 nM and the GI50 [57] was 1840 nM. It also gave a GI50 [58] of 2130 nM, a GI50 [59] of 1570 nM and a GI50 [60] of 1580 nM. The GI50 [61] was 1110 nM, the GI50 [62] was 2560 nM and the GI50 [63] was 2880 nM. The GI50 [64] was 510 nM.
